Measurements published in PubChem BioAssay AID1963861 (Molecular Pharmacology Branch, DTP, NCI, 2024).

System: 885724-159-R-J1-PDC KRAS PDC multicell spheroid viability
Assay: Anticancer human tumor 885724-159-R-J1-PDC patient-derived pancreatic adenocarcinoma cell line growth inhibition [KRAS2]
Settings: for IC50: curve of first compound; for viability, T/C: stronger effect = lower value
Text: Multicellular complex tumor spheroid response to RAS pathway inhibitors in combination with a targeted agents in patient-derived cell lines with oncogenic KRAS variants from multiple cancer types
A high-throughput screen of multi-cell type tumor spheroids was designed to identify active combinations of targeted small molecules and KRAS pathway inhibitors. Complex spheroids include a stromal component modeled by human endothelial cells (HUVEC) and fibroblasts modeled by human mesenchymal stem cells (MSCs). The concentration ranges selected for each drug and investigational agent were based upon clinically achievable concentrations if the clinical Cmax of the agent was known.
Compounds. The drugs and investigational agents: BI-3406 (NSC825286), BAY-293 (NSC824723), batoprotafib (TNO155; NSC825523), sotorasib (AMG 510; NSC818433), MRTX1257 (NSC819558), elimusertib (BAY 1895344; NSC800525), molibresib (GSK525762; NSC774829), temuterkib (LY3214996; NSC803410), venetoclax (NSC766270), alisertib (NSC759677), olaparib (NSC753686), talazoparib (NSC767125), erdafitinib (NSC781556), ipatasertib (NSC767898), cabozantinib (NSC761068), nintedanib (NSC756659), abemaciclib (NSC768073), docetaxel (NSC628503), trametinib (NSC758246), and sapanisertib (NSC764658) were obtained from the National Cancer Institute (NCI) Developmental Therapeutics Program Chemical Repository. The FDA-approved anticancer drug set is available from the Developmental Therapeutics Program. […] The stock solutions were prepared in dimethyl sulfoxide (DMSO, Sigma-Aldrich, St. Louis, MO, cat. D2650) at 800-fold the tested concentration and stored at -70 degrees C prior to their use. All drugs and investigational agents were tested over a range starting from a high concentration at or near the clinical Cmax and decreasing in half-log increments. If the clinical Cmax for an agent had not been determined, the highest concentration tested was 10 microM.
Cell Culture. All cells were maintained in an incubator at 37 degrees C and 5% CO2 with 95% humidity. The PDC lines were cultured according to standard operating procedures established by the NCI PDMR (https://pdmr.cancer.gov/sops/default.htm). Briefly, all PDCs were thawed and cultured in Matrigel-coated flasks prepared with a working solution of 1X Ham's F-12 nutrient mix, without supplementation (Invitrogen, Waltham, MA, cat. 11765054), 100 U/mL penicillin-streptomycin (Invitrogen, cat. 15140122), and 2.5% Matrigel (Corning Inc., Corning, NY, cat. 354248) for the first three passages. All PDCs were cultured in complete DMEM/F-12 media containing advanced DMEM/F-12 (Invitrogen, cat. 12634028), 4.9% defined fetal bovine serum, heat inactivated (HyClone Laboratories Inc., Logan, UT, cat. SH30070.03HI), 389 ng/mL hydrocortisone (Sigma-Aldrich, cat. H4001), 9.7 ng/mL human EGF recombinant protein (Invitrogen, cat. PHG0313), 23.4 microg/mL adenine (Sigma-Aldrich, cat. A2786), 97.3 U/mL penicillin-streptomycin (Invitrogen, cat. 15140122), 1.9 mM L-glutamine (Invitrogen, cat. 25030081), and 9.7 microM Y-27632 dihydrochloride (Tocris Bioscience, Bristol, United Kingdom, cat. 1254). The PDCs were cultured in complete DMEM/F12 media without 9.7 microM Y-27632 dihydrochloride for at least two passages prior to the screen. The established cell line HOP-62 was cultured in RPMI 1640 medium, HEPES (Invitrogen, cat. 22400105) with 10% defined fetal bovine serum (HyClone Laboratories Inc., cat. SH30070.03) and 2 mM L-glutamine (Invitrogen, cat. 25030081). The pooled donor HUVEC were cultured in endothelial cell growth medium 2 (PromoCell, Heidelberg, Germany, cat. C-22011) and the hMSC were cultured in mesenchymal stem cell growth medium 2 (PromoCell, cat. C-28009). For all experiments, HUVEC and hMSC were used at passages </=5, while the malignant cell lines were used at passages </=15. […]

[1] = second compound 0.1 µM, first compound 0.01 µM
[2] = second compound 0.1 µM, first compound 0.0316 µM
[3] = second compound 0.1 µM, first compound 0.1 µM
[4] = second compound 0.316 µM, first compound 0.01 µM
[5] = second compound 0.316 µM, first compound 0.0316 µM
[6] = second compound 0.316 µM, first compound 0.1 µM
[7] = second compound 1 µM, first compound 0.01 µM
[8] = second compound 1 µM, first compound 0.0316 µM
[9] = second compound 1 µM, first compound 0.1 µM
[10] = second compound 3.16 µM, first compound 0.01 µM
[11] = second compound 3.16 µM, first compound 0.0316 µM
[12] = second compound 3.16 µM, first compound 0.1 µM
[13] = second compound 10 µM, first compound 0.01 µM
[14] = second compound 10 µM, first compound 0.0316 µM
[15] = second compound 10 µM, first compound 0.1 µM
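Also: spheroids exposed to agents for 7 days before readout.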

| SMILES | IC50 (second compound 0.1 µM) [nM] | IC50 (second compound 0.316 µM) [nM] | IC50 (second compound 1 µM) [nM] | IC50 (second compound 3.16 µM) [nM] | IC50 (second compound 10 µM) [nM] | viability, T/C [1] [%] | viability, T/C [2] [%] | viability, T/C [3] [%] | viability, T/C [4] [%] | viability, T/C [5] [%] | viability, T/C [6] [%] | viability, T/C [7] [%] | viability, T/C [8] [%] | viability, T/C [9] [%] | viability, T/C [10] [%] | viability, T/C [11] [%] | viability, T/C [12] [%] | viability, T/C [13] [%] | viability, T/C [14] [%] | viability, T/C [15] [%] | also measured |
| --- | --- | --- | --- | --- | --- | --- | --- | --- | --- | --- | --- | --- | --- | --- | --- | --- | --- | --- | --- | --- | --- |
| CC(=O)OC12COC1CC(O)C1(C)C(=O)C(O)C3=C(C)C(OC(=O)C(O)C(NC(=O)OC(C)(C)C)c4ccccc4)CC(O)(C(OC(=O)c4ccccc4)C21)C3(C)C (stereo not given) + C=CC(=O)N1CCN(c2nc(=O)n(-c3c(C)ccnc3C(C)C)c3nc(-c4c(O)cccc4F)c(F)cc23)C(C)C1 | > 3160 | > 3160 | > 3160 | > 3160 | > 3160 | 91.7 | 104 | 95.5 | 94.6 | 102 | 104 | 105 | 119 | 114 | 99.1 | 114 | 113 | 80.8 | 84.1 | 87.7 | viability, T/C (second compound 0.1 µM, first compound 0.316 µM): 107%; viability, T/C (second compound 0.1 µM, first compound 1 µM): 110%; viability, T/C (second compound 0.1 µM, first compound 3.16 µM): 112%; viability, T/C (second compound 0.316 µM, first compound 0.316 µM): 112%; viability, T/C (second compound 0.316 µM, first compound 1 µM): 112%; viability, T/C (second compound 0.316 µM, first compound 3.16 µM): 112%; viability, T/C (second compound 1 µM, first compound 0.316 µM): 103%; viability, T/C (second compound 1 µM, first compound 1 µM): 119%; viability, T/C (second compound 1 µM, first compound 3.16 µM): 125%; viability, T/C (second compound 3.16 µM, first compound 0.316 µM): 112%; viability, T/C (second compound 3.16 µM, first compound 1 µM): 111%; viability, T/C (second compound 3.16 µM, first compound 3.16 µM): 121%; viability, T/C (second compound 10 µM, first compound 0.316 µM): 86%; viability, T/C (second compound 10 µM, first compound 1 µM): 86.6%; viability, T/C (second compound 10 µM, first compound 3.16 µM): 78.3% |
| CN(C)C/C=C/C(=O)Nc1cc2c(Nc3ccc(F)c(Cl)c3)ncnc2cc1O[C@H]1CCOC1 + C=CC(=O)N1CCN(c2nc(=O)n(-c3c(C)ccnc3C(C)C)c3nc(-c4c(O)cccc4F)c(F)cc23)C(C)C1 | > 100 | > 100 | > 100 | > 100 | > 100 | 95.4 | 90.8 | 79.9 | 101 | 92.6 | 86 | 110 | 93.7 | 90.8 | 97 | 101 | 89.4 | 78.3 | 66.2 | 69.4 | viability, T/C (second compound 0.1 µM, first compound 0.000316 µM): 116%; viability, T/C (second compound 0.1 µM, first compound 0.001 µM): 117%; viability, T/C (second compound 0.1 µM, first compound 0.00316 µM): 106%; viability, T/C (second compound 0.316 µM, first compound 0.000316 µM): 124%; viability, T/C (second compound 0.316 µM, first compound 0.001 µM): 118%; viability, T/C (second compound 0.316 µM, first compound 0.00316 µM): 101%; viability, T/C (second compound 1 µM, first compound 0.000316 µM): 130%; viability, T/C (second compound 1 µM, first compound 0.001 µM): 119%; viability, T/C (second compound 1 µM, first compound 0.00316 µM): 117%; viability, T/C (second compound 3.16 µM, first compound 0.000316 µM): 114%; viability, T/C (second compound 3.16 µM, first compound 0.001 µM): 117%; viability, T/C (second compound 3.16 µM, first compound 0.00316 µM): 104%; viability, T/C (second compound 10 µM, first compound 0.000316 µM): 89.4%; viability, T/C (second compound 10 µM, first compound 0.001 µM): 95%; viability, T/C (second compound 10 µM, first compound 0.00316 µM): 83.2% |
